# Like-named read-outs stand apart in the source and are kept apart here.
# Assays:
# [1] = Intrinsic toxicity of test compound in uninfected CEM cells (MTT); settings: human
# Description: (§1) Methods, 20, 309-321 (1988).
# (§2) [table 42: the next 8 blocks are its lines as printed, fixed-width]
# HIV-1 in CEM cells = assay: HIV inhibition assay of acutely infected CEM cells (tetrazolium/MTT colorimetric), antiviral efficacy; format: cell-based; settings: Human immunodeficiency virus 1, CCRF-CEM, 168 h
# Description: as §1, §2
# HIV protease = molecular target: T1, HIV protease (Human immunodeficiency virus type 1 group M subtype B, UniProt P04585); assay: biochemical; format: biochemical; settings: Table 21; above-described enzyme assay
# T1 construct: HIV protease is diluted in the assay buffer to a final enzyme concentration of 12.3 nanomolar, based on a molecular weight of 10,780
# Procedure: The enzyme method is described below. […] The positive control is MVT-101 (Miller, M. et al, Science, 246, 1149 (1989)]. The assay conditions are as follows:
# 20 mM sodium phosphate, pH 6.4
# The above described substrate is dissolved in DMSO, then diluted 10 fold in assay buffer. Final substrate concentration in the assay is 80 μM.
# The final concentration of DMSO is 14% and the final concentration of glycerol is 18%. The test compound is dissolved in DMSO and diluted in DMSO to 10× the test concentration; 10 μl of the enzyme preparation is added, the materials mixed and then the mixture is incubated at ambient temperature for 15 minutes. The enzyme reaction is initiated by the addition of 40μl of substrate. The increase in fluorescence is monitored at 4 time points (0, 8, 16 and 24 minutes) at ambient temperature. Each assay is carried out in duplicate wells.
Structure (SMILES),CC50 at 168 h [1],"EC50 (HIV-1 in CEM cells; Table 21, CEM cells, 1000 TCID50 HIV-1, 7 days, read-out: EC50)",EC50 (HIV-1 in CEM cells),CC50 at 168 h ([1]; cem cells),IC50 (HIV protease)
CC(C)CCN(C[C@@H](O)[C@H](Cc1ccccc1)NC(=O)[C@H](CC(N)=O)NC(=O)c1ccc2ccccc2n1)S(=O)(=O)c1ccccc1 [Example 2],203 nM,5 nM,,,
COc1ccc(COC(=O)NC[C@@H](C)C(=O)N[C@@H](Cc2ccccc2)[C@H](O)CN(CCC(C)C)S(=O)(=O)c2ccccc2)cc1 [Example 3],780 nM,,11 nM,,
CC(C)CCN(C[C@@H](O)[C@H](Cc1ccccc1)NC(=O)[C@H](CC(N)=O)NC(=O)c1ccc2ccccc2n1)S(C)(=O)=O [Example 4],28 nM,,64 nM,,
O=C(N[C@@H](Cc1ccccc1)[C@H](O)CN(C1CCCCC1)S(=O)(=O)c1ccccc1)OCc1ccccc1 [Example 5],11 nM,,88 nM,,
CCCN(C[C@@H](O)[C@H](Cc1ccccc1)NC(=O)[C@H](CC(N)=O)NC(=O)OCc1ccccc1)S(=O)(=O)c1ccccc1 [Example 7],,,25 nM,39 nM,3 nM
COCCCN(C[C@@H](O)[C@H](Cc1ccccc1)NC(=O)OCc1ccccc1)S(=O)(=O)c1ccccc1 [Example 9],15 nM,,398 nM,,
CSCCCN(C[C@@H](O)[C@H](Cc1ccccc1)NC(=O)OCc1ccccc1)S(=O)(=O)c1ccccc1 [Example 10],12 nM,,700 nM,,
CC(C)CCN(C[C@@H](O)[C@H](Cc1ccccc1)NC(=O)[C@@H](NC(=O)CN(C)C)C(C)(C)C)S(=O)(=O)c1ccccc1 [Example 11],54 nM,,11 nM,,
CC(C)CCN(C[C@@H](O)[C@H](Cc1ccccc1)NC(=O)[C@H](Cc1cnc[nH]1)NC(=O)c1ccc2ccccc2n1)S(=O)(=O)c1ccccc1 [Example 12],7.5 nM,,12 nM,,
CC(C)CN(C[C@@H](O)[C@H](Cc1ccccc1)NC(=O)OCc1cccnc1)S(=O)(=O)c1ccccc1 [Example 16],62000 nM,,80 nM,,
COc1ccc(S(=O)(=O)N(CC(C)C)C[C@@H](O)[C@H](Cc2ccccc2)NC(=O)OCc2cccnc2)cc1 [Example 17],59000 nM,,5 nM,,
COc1ccc(S(=O)(=O)N(CC(C)C)C[C@@H](O)[C@H](Cc2ccccc2)NC(=O)OCc2ccncc2)cc1 [Example 22],31000 nM,,18 nM,,
COc1ccc(S(=O)(=O)N(CC(C)C)C[C@@H](O)[C@H](Cc2ccccc2)NC(=O)OCc2ccc[n+]([O-])c2)cc1 [Example 25],167000 nM,,120 nM,,
COc1ccc(S(=O)(=O)N(CC(C)C)C[C@@H](O)[C@H](Cc2ccccc2)NC(=O)OC(C)(C)C)cc1 [Example 27],,,177 nM,300000 nM,
COc1ccc(S(=O)(=O)N(CC(C)C)C[C@@H](O)[C@H](Cc2ccccc2)NC(=O)c2ccccc2)cc1 [Example 28],213000 nM,,76 nM,,
COc1ccc(S(=O)(=O)N(CC(C)C)C[C@@H](O)[C@H](Cc2ccccc2)NC(=O)c2ccccc2C)cc1 [Example 29],196000 nM,,105 nM,,
COc1ccc(S(=O)(=O)N(CC(C)C)C[C@@H](O)[C@H](Cc2ccccc2)NC(=O)c2ccccc2Cl)cc1 [Example 30],154000 nM,,154 nM,,
COc1ccc(S(=O)(=O)N(CC(C)C)C[C@@H](O)[C@H](Cc2ccccc2)NC(=O)c2c(C)cccc2C)cc1 [Example 32],17000 nM,,98 nM,,
